The text below walks through data of US20040138199A1, “Benzoxazines and derivatives thereof as therapeutic agents” (priority 2002, published 2004).

Broadly, the IC50 is the midpoint of a concentration-inhibition curve.

The target of this experiment is T1, p101/p110γ protein (PI3Kγ) (Homo sapiens, UniProt P48736).
T1 construct: HA; made in house; host or cells: Spodoptera frugiperda (Sf9) cells, baculovirus coinfection
Nature of the experiment: PI3Kγ In Vitro Kinase Assay. Format: biochemical. Conditions: purified recombinant p101/p110γ with G protein β1/γ2 subunits; 20 μM ATP, 25 μM PIP2; 20 minutes at room temperature; radioactive PIP3 readout. In short, it runs like this:
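Baculovirus/Sf9-expressed p101/p110γ (~2.7 nM) with G protein β1/γ2, 20 μM ATP plus [γ-32P]ATP, PIP2/PE micelles (25 μM PIP2, 300 μM PE, 10 mM MgCl2) in HEPES buffer. Reaction 20 min at room temperature, stopped with H3PO4; radiolabelled PIP3 counted on filters to derive IC50 (μM).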

T1 sequence (P48736 whole entry, species assumed): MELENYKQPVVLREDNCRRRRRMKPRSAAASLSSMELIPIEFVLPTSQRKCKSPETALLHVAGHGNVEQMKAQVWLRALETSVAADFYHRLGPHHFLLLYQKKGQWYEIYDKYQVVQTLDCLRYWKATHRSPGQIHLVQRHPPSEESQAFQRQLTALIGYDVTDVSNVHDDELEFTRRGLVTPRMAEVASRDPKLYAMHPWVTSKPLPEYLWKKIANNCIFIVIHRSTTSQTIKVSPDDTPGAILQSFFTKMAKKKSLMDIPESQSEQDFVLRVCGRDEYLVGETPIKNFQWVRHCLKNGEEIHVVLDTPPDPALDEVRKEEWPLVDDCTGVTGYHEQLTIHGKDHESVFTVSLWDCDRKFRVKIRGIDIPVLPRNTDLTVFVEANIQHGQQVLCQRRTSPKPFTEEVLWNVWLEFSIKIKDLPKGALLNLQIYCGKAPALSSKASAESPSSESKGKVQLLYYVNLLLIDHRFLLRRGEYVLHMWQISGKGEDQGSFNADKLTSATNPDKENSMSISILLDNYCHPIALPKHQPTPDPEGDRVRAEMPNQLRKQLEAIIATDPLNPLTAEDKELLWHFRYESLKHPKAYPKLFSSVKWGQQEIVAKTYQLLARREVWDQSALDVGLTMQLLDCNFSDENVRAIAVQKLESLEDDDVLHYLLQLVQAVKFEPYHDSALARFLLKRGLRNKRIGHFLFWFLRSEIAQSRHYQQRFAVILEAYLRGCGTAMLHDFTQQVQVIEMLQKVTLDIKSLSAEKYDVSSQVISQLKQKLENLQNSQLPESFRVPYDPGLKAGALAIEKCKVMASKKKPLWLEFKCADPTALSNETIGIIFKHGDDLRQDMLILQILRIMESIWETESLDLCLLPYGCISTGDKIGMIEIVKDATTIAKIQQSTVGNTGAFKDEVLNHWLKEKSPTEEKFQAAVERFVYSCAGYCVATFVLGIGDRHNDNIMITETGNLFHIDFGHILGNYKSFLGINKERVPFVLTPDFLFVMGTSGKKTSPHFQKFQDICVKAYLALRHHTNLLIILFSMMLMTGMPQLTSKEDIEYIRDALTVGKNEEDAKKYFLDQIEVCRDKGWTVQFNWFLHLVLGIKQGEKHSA
T1 sequence (Q8WYR1 whole entry partner, species assumed): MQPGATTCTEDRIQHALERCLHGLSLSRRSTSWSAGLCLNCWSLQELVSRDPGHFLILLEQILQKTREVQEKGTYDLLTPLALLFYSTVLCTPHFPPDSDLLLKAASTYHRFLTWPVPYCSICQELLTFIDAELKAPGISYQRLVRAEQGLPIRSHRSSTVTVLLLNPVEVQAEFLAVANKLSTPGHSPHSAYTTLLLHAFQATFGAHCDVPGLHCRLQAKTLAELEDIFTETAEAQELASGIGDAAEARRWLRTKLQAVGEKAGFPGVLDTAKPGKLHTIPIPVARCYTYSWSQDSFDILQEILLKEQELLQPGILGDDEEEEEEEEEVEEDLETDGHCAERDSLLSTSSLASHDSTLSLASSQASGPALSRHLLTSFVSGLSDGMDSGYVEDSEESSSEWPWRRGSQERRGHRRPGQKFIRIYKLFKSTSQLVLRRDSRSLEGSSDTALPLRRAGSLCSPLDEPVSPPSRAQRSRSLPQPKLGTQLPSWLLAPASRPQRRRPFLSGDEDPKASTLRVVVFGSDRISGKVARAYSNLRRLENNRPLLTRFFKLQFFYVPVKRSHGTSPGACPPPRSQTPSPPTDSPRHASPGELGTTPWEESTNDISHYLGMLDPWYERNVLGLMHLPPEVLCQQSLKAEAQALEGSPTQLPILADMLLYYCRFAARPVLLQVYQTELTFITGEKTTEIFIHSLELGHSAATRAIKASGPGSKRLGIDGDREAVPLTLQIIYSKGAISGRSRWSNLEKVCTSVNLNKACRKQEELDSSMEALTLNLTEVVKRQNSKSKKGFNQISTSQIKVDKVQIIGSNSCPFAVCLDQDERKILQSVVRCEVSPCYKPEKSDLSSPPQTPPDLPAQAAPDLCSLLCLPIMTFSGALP

`Cc1cc(C)cc(CN2c3cc(C=C4SC(=S)NC4=O)ccc3OCC2C)c1` (stereo not shown) [Example 9, 5-[4-(3,5-Dimethyl-benzyl)-3-methyl-3,4-dihydro-2H-benzo[1,4]oxazine-6-ylmethylene]-2-thioxo-thiazolidin-4-one]: the IC50 turned out to be 2590 nM.

In the case of `CC(=O)N1CCOc2ccc(C=C3SC(=S)NC3=O)cc21` [Example 92, 5-(4-Acetyl-3,4-dihydro-2H-1,4-benzoxazin-6-ylmethylene)-2-thioxo-thiazolidin-4-one], the IC50 came to 33 nM.

In the case of `CCCC(=O)N1CCOc2ccc(C=C3SC(=S)NC3=O)cc21` [Example 94, 5-(4-Butyryl-3,4-dihydro-2H-1,4-benzoxazin-6-ylmethylene)-2-thioxo-thiazolidin-4-one], the IC50 is 10 nM.

`CCCCCCC(=O)N1CCOc2ccc(C=C3SC(=S)NC3=O)cc21` [Example 34, 5-(4-Heptanoyl-3,4-dihydro-2H-1,4-benzoxazin-6-ylmethylene)-2-thioxo-thiazolidin-4-one]: the IC50 was determined as 4 nM.

Take `CCCCCCCCC(=O)N1CCOc2ccc(C=C3SC(=S)NC3=O)cc21` [Example 98, 5-[4-(4-Nonanoyl)-3,4-dihydro-2H-1,4-benzoxazin-6-ylmethylene]-2-thioxo-thiazolidin-4-one]: the IC50 turned out to be 25 nM. In the case of `O=C1NC(=S)SC1=Cc1ccc2c(c1)N(C(=O)c1ccno1)CCO2` [Example 49, 5-[4-(Isoxazole-5-carbonyl)-3,4-dihydro-2H-1,4-benzoxazin-6-ylmethylene]-2-thioxo-thiazolidin-4-one], the half-maximal inhibitory concentration (IC50) worked out at 245 nM. With `CC(C)(C)C(=O)N1CCOc2ccc(C=C3SC(=S)NC3=O)cc21` [Example 97, 5-[4-(2,2-Dimethyl-propionyl)-3,4-dihydro-2H-1,4-benzoxazin-6-ylmethylene]-2-thioxo-thiazolidin-4-one], the IC50 is 1610 nM. The result for `CCCCCCCCNC(=O)N1CCOc2ccc(C=C3SC(=S)NC3=O)cc21` [Example 62, 6-(4-Oxo-2-thioxo-thiazolidin-5-ylidenemethyl)-2,3-dihydro-1,4-benzoxazine-4-carboxylic acid octylamide] reads 4000 nM; that for `CCCCCCc1ccc(C(=O)N2CCOc3ccc(C=C4SC(=S)NC4=O)cc32)cc1` [Example 27, 5-[4-(4-Hexyl-benzoyl)-3,4-dihydro-2H-1,4-benzoxazin-6-ylmethylene]-2-thioxo-thiazolidin-4-one], 2020 nM. Next, `COc1ccc(C)cc1C(=O)N1CCOc2ccc(C=C3SC(=S)NC3=O)cc21` [Example 88, 5-[4-(2-Methoxy-5-methyl-benzoyl)-3,4-dihydro-2H-benzo[1,4]oxazin-6-ethylene]-2-thioxo-thiazolidin-4-one]: 465 nM; `CCc1ccc(C(=O)N2CCOc3ccc(C=C4SC(=S)NC4=O)cc32)cc1` [Example 26, 5-[4-(4-Ethyl-benzoyl)-3,4-dihydro-2H-1,4-benzoxazin-6-ylmethylene]-2-thioxo-thiazolidin-4-one]: 545 nM.

With “2-[2-(4-Oxo-2-thioxo-thiazolidin-5-ylidenemethyl)-7,8-dihydro-6H-5-oxa-9-aza-benzocycloheptene-9-carbonyl]-anthraquinone [Example 127]”, the IC50 came out at 4990 nM. On to `O=C1NC(=S)SC1=Cc1ccc2c(c1)N(C(=O)Nc1ccccc1)CCO2` [Example 58, 6-(4-Oxo-2-thioxo-thiazolidin-5-ylidenemethyl)-2,3-dihydro-1,4-benzoxazine-4-carboxylic acid phenylamide], for which the IC50 amounted to 32 nM. On to `O=C1NC(=S)SC1=Cc1ccc2c(c1)N(C(=O)C1CCCCC1)CCO2` [Example 2, 5-[4-(1-Cyclohexyl-methanoyl)-3,4-dihydro-2H-benzo[1,4]oxazine-6-ylmethylene]-2-thioxo-thiazolidin-4-one], for which the IC50 was 21.7 nM. The result for “5-[9-(2-Thiophen-2-yl-acetyl)-6,7,8,9-tetrahydro-5-oxa-9-aza-benzocyclohepten-2-ylmethylene]-2-thioxo-thiazolidin-4-one [Example 112]” reads 1140 nM. As for `COc1cccc(NC(=O)N2CCOc3ccc(C=C4SC(=S)NC4=O)cc32)c1` [Example 59, 6-(4-Oxo-2-thioxo-thiazolidin-5-ylidenemethyl)-2,3-dihydro-1,4-benzoxazine-4-carboxylic acid (3-methoxy-phenyl)-amide], the IC50 amounted to 125 nM. As to `CC(C)(C)c1ccc(C(=O)N2CCOc3ccc(C=C4SC(=S)NC4=O)cc32)cc1` [Example 25, 5-[4-(4-tert-Butyl-benzoyl)-3,4-dihydro-2H-1,4-benzoxazin-6-ylmethylene]-2-thioxo-thiazolidin-4-one], the IC50 stood at 245 nM.

Regarding `O=C1NC(=S)SC1=Cc1ccc2c(c1)N(C(=O)c1ccco1)CCCO2` [Example 123, 5-[9-(Furan-2-carbonyl)-6,7,8,9-tetrahydro-5-oxa-9-aza-benzocyclohepten-2-ylmethylene]-2-thioxo-thiazolidin-4-one], the IC50 worked out at 3900 nM. The result for `O=C1NC(=S)SC1=Cc1ccc2c(c1)N(C(=O)c1sccc1Cl)CCO2` [Example 53, 5-[4-(3-Chloro-thiophene-2-carbonyl)-3,4-dihydro-2H-1,4-benzoxazin-6-ylmethylene]-2-thioxo-thiazolidin-4-one] reads 265 nM; that for `O=C1NC(=S)SC1=Cc1ccc2c(c1)N(C(=O)C=Cc1ccccc1)CCO2` [Example 37, 5-[4-(3-Phenyl-acryloyl)-3,4-dihydro-2H-1,4-benzoxazin-6-ylmethylene]-2-thioxo-thiazolidin-4-one], 7 nM; that for `CC1CCCC(C(=O)N2CCOc3ccc(C=C4SC(=S)NC4=O)cc32)C1` (stereo not shown) [Example 85, 5-[4-(3-Methyl-cyclohexanecarbonyl)-3,4-dihydro-2H-benzo[1,4]oxazin-6-ethylene]-2-thioxo-thiazolidin-4-one], 12 nM. As for `O=C1NC(=S)SC1=Cc1ccc2c(c1)N(C(=O)c1cc(Cl)cc(Cl)c1)CCO2` [Example 63, 5-[4-(3,5-Dichloro-benzoyl)-3,4-dihydro-2H-1,4-benzoxazin-6-ylmethylene]-2-thioxo-thiazolidin-4-one], the IC50 was 145 nM. Take `O=C1NC(=S)SC1=Cc1ccc2c(c1)N(C(=O)COCc1ccccc1)CCO2` [Example 39, 5-[4-(2-Benzyloxy-acetyl)-3,4-dihydro-2H-1,4-benzoxazin-6-ylmethylene]-2-thioxo-thiazolidin-4-one]: the IC50 worked out at 14 nM. Next, `O=C1NC(=S)SC1=Cc1ccc2c(c1)N(C(=O)Oc1cccc3ccccc13)CCO2` [Example 69, 6-(4-Oxo-2-thioxo-thiazolidin-5-ylidenemethyl)-2,3-dihydro-1,4-benzoxazine-4-carboxylic acid naphthalen-1-yl ester]: 6 nM; `O=C1NC(=S)SC1=Cc1ccc2c(c1)N(C(=O)Cc1ccccc1)CCO2` [Example 19, 5-(4-Phenylacetyl-3,4-dihydro-2H-1,4-benzoxazin-6-ylmethylene)-2-thioxo-thiazolidin-4-one]: 55 nM.
